Test results reported in patent publication US20140086938A1, “METHODS OF INHIBITING TUMOR GROWTH USING TTK ANTAGONISTS” (University Health Network, priority 2007, published 2014).

Columns and labels:
tumors = settings: TNP-470 below maximum tolerated dose with cyclophophamide 170 mg/kg, every 6 days; cited from earlier work
BT474 = assay: SRB cell viability after siRNA transfection; assay type: cell-based, human; settings: 40 nM siRNA, day 5 post-transfection, normalized over siCONTROL
Protocol: (§1) Different normal breast and breast cancer cell lines were used for siRNA transfection. Cells were seeded at various concentrations, ranging from 1500 to 6000 per well according to cell growth rate, into 96 well plates. 40 nM individual siRNAs or 40 nM siRNA pool including four individual siRNAs at 10 nM each were transfected into cells using Lipofectamine-2000 24 hrs after cell seeding. Cells were then incubated at 37° C. for five days before cell viability assay were conducted.
(§2) SRB assay was performed to assess cell survival. SRB is a water-soluble dye that binds to the basic amino acids of the cellular proteins. Thus, colorimetric measurement of the bound dye provides an estimate of the total protein mass and is related to the cell number. The cells were fixed in situ by gently aspirating off the culture media and adding 50 μl ice cold 10% Tri-chloroacetic Acid (TCA) per well and incubate at 4° C. for 30-60 min. The plates were washed with tap water five times and allowed to air dry for 5 min. 50 μl of 0.4% (w/v) Sulforhodamine B solution in 1% (v/v) acetic acid was added per well and incubated for 30 min at RT for staining. Following staining, plates were washed four times with 1% acetic acid to remove any unbound dye and then allowed to air dry for 5 min. The stain was solubilized with 100 μl of 10 mM Tris pH 10.5 per well. Absorbance was read at 570 mn. The cell survival percentage after each siRNA(s) knock down was calculated over the non-silencing control siCTRL or siPOOL as well as siTOX as a transfection efficiency control.
(§3) To assess the effects of TTK knockdown on the viability of breast cancer cells, various breast cancer cell lines were transfected with each of the four TTK-targeting siRNAs individually, the pooled siRNA containing all four of the TTK-targeting siRNAs, or the siCONTROL siRNA, all at a concentration of 40 nM. At day 5 post-transfection, the viability of the cells was determined using the SRB assay described herein.

MDA-MB-453 = assay: SRB cell viability after siRNA transfection; assay type: cell-based, human; settings: 40 nM siRNA, day 5 post-transfection, normalized over siCONTROL
Protocol: as §1, §2, §3

MDA-MB-468 = assay: SRB cell viability after siRNA transfection; assay type: cell-based, human; settings: 40 nM siRNA, day 5 post-transfection, normalized over siCONTROL
Protocol: as §1, §2, §3

MCF-7 = assay: SRB cell viability after siRNA transfection; assay type: cell-based, human; settings: 40 nM siRNA, day 5 post-transfection, normalized over siCONTROL
Protocol: as §1, §2, §3

CAMA-1 = assay: SRB cell viability after siRNA transfection; assay type: cell-based, human; settings: 40 nM siRNA, day 5 post-transfection, normalized over siCONTROL
Protocol: as §1, §2, §3

HCC1419 = assay: SRB cell viability after siRNA transfection; assay type: cell-based, human; settings: 40 nM siRNA, day 5 post-transfection, normalized over siCONTROL
Protocol: as §1, §2, §3

MDA-MB-231 = assay: SRB cell viability after siRNA transfection; assay type: cell-based, human; settings: 40 nM siRNA, day 5 post-transfection, normalized over siCONTROL
Protocol: as §1, §2, §3

T47D = assay: SRB cell viability after siRNA transfection; assay type: cell-based, human; settings: 40 nM siRNA, day 5 post-transfection, normalized over siCONTROL
Protocol: as §1, §2, §3

MDA-MB-435 = assay: SRB cell viability after siRNA transfection; assay type: cell-based, human; settings: 40 nM siRNA, day 5 post-transfection, normalized over siCONTROL
Protocol: as §1, §2, §3

MDA-MB-330 = assay: SRB cell viability after siRNA transfection; assay type: cell-based, human; settings: 40 nM siRNA, day 5 post-transfection, normalized over siCONTROL
Protocol: as §1, §2, §3

Hs578T = assay: SRB cell viability after siRNA transfection; assay type: cell-based, human; settings: 40 nM siRNA, day 5 post-transfection, normalized over siCONTROL
Protocol: as §1, §2, §3

SKBr-3 = assay: SRB cell viability after siRNA transfection; assay type: cell-based, human; settings: 40 nM siRNA, day 5 post-transfection, normalized over siCONTROL
Protocol: as §1, §2, §3

MCF-7 (Luminal) = assay: Cell cycle profile by flow cytometry after siRNA transfection; assay type: cell-based, human; settings: for apoptosis, indicated by increased G2/M and <G1 populations: MCF7 breast cancer cells, flow cytometry, vs siCONTROL; for <G1 / G2/M: MCF-7, 40 nM siRNA, day 3 post-transfection; for <G1: siCONTROL (Neg. Control) 2.11; for G2/M: siCONTROL (Neg. Control) 16.17
Protocol: (§4) To assess the effects of TTK knockdown on the physiology of normal breast and breast cancer cell lines, luminal (MCF7) or basal-like (MDA-MB-435, MDA-MB-468) breast cancer cell lines, a lung cancer cell line (A549) and a normal breast cell line (184A1) each were transfected with 40 nM of TTK-targeting siRNA #2, siRNA #3, the pooled siRNA containing all four of the TTK-targeting siRNAs, or the siCONTROL siRNA. At day 3 post-transfection, the cell cycle profile of the transfected cells was analyzed by flow cytometry to determine the effects of TTK knockdown on cell cycle arrest and cell death. Depletion of TTK in cells transfected with TTK-targeting siRNAs caused significant cell cycle arrest and cell death.

184A1 (Normal) = assay: as above; assay type: cell-based, human; settings: 40 nM siRNA, day 3 post-transfection; for <G1: siCONTROL (Neg. Control) 1.03; for G2/M: siCONTROL (Neg. Control) 10.35
Protocol: as §4

A549 (Lung) = assay: as above; assay type: cell-based, human; settings: 40 nM siRNA, day 3 post-transfection; for <G1: siCONTROL (Neg. Control) 0.84; for G2/M: siCONTROL (Neg. Control) 10.57
Protocol: as §4

MDA-MB-468 (Basal) = assay: as above; assay type: cell-based, human; settings: 40 nM siRNA, day 3 post-transfection; for <G1: siCONTROL (Neg. Control) 4.09; for G2/M: siCONTROL (Neg. Control) 20.59
Protocol: as §4

MDA-MB-435 (Basal) = assay: as above; assay type: cell-based, human; settings: 40 nM siRNA, day 3 post-transfection; for <G1: siCONTROL (Neg. Control) 0.85; for G2/M: siCONTROL (Neg. Control) 18.77
Protocol: as §4

[1] = system: T-47D breast cancer cells; assay: Colony formation in soft agar after siRNA transfection; assay type: cell-based, human; settings: 40 nM siRNA, relative to siCONTROL, two independent experiments
Protocol: Cells were transfected with 40 nM individual siRNAs, 40 nM siRNA pool including four individual siRNAs at 10 nM each or 40 nM non-silencing control siCONTROL using Lipofectamine 2000 Transfection Reagent (Invitrogen Corporation), mixed with culture medium containing 0.7% agar in 6-well plates and cultured at 37° C. After 2 weeks, the top layer of the culture was stained with 0.2% p-iodonitrotetrazolium violet and colonies were counted using a Sorcerer Colony Counter (Optomax).
To determine the effects of siRNA-mediated knockdown of TTK gene expression on anchorage-independent cell growth in breast cancer cells, T-47D breast cancer cell line was transfected with either the siRNA#2 or siRNA#3 TTK-targeting siRNA, the siRNA POOL containing 4 TTK-targeting siRNAs or the siCONTROL non-targeting siRNA. Following transfection colony formation in soft agar was assessed.

| Molecule | % survival (BT474) [%] | % survival (MDA-MB-453) [%] | % survival (MDA-MB-468) [%] | % survival (MCF-7) [%] | % survival (CAMA-1) [%] | % survival (HCC1419) [%] | % survival (MDA-MB-231) [%] | % survival (T47D) [%] | % survival (MDA-MB-435) [%] | % survival (MDA-MB-330) [%] | % survival (Hs578T) [%] | % survival (SKBr-3) [%] | apoptosis, indicated by increased G2/M and <G1 populations (MCF-7 (Luminal)) | <G1 (MCF-7 (Luminal)) | G2/M (MCF-7 (Luminal)) | <G1 (184A1 (Normal)) | G2/M (184A1 (Normal)) | <G1 (A549 (Lung)) | G2/M (A549 (Lung)) | <G1 (MDA-MB-468 (Basal)) | also measured |
| --- | --- | --- | --- | --- | --- | --- | --- | --- | --- | --- | --- | --- | --- | --- | --- | --- | --- | --- | --- | --- | --- |
| CO[C@@H]1[C@H](OC(=O)NC(=O)CCl)CC[C@]2(CO2)[C@H]1[C@@]1(C)O[C@@H]1CC=C(C)C [TNP-470] |  |  |  |  |  |  |  |  |  |  |  |  |  |  |  |  |  |  |  |  | tumor response (tumors): complete regression of the tumors |
| siRNA #1: siRNA targeting human TTK: 5′-GCAAUACCUUGGAUGAUUA-3′ (SEQ ID NO: 3) (listed as RNA, chemistry not given here) | 0.64 | 0.33 | 0.69 | 0.27 | 0.46 | 0.91 | 0.21 | 0.62 | 0.78 | 0.31 | 1.02 | 0.32 |  |  |  |  |  |  |  |  |  |
| siRNA #2: siRNA targeting human TTK: 5′-GGUAUUAACUGCCCAAGAA-3′ (SEQ ID NO: 4) (listed as RNA, chemistry not given here) | 0.66 | −0.04 | 0.00 | 0.27 | 0.30 | 0.75 | −0.09 | 0.44 | 0.25 | 0.38 | 1.25 | 0.34 | caused apoptosis of the cancer cells | 12.03 | 25.18 | 5.35 | 27.75 | 6.03 | 20.58 | 15.10 | G2/M (MDA-MB-468 (Basal)): 15.72; <G1 (MDA-MB-435 (Basal)): 4.69; G2/M (MDA-MB-435 (Basal)): 19.89; colonies formed in soft agar (number and size) [1]: reduction in the number of colonies; colonies formed in soft agar (number and size) ([1]; listed as siRNA#2): reduction in both colony size and number |
| siRNA #3: siRNA targeting human TTK: 5′-GCACGUGACUACUUUCAAA-3′ (SEQ ID NO: 5) (listed as RNA, chemistry not given here) | 0.83 | 0.18 | 0.27 | 0.23 | 0.52 | 0.91 | 0.23 | 0.74 | 0.60 | 0.63 | 0.53 | 0.49 | caused apoptosis of the cancer cells | 5.61 | 65.23 | 3.92 | 17.49 | 11.38 | 24.87 | 11.12 | G2/M (MDA-MB-468 (Basal)): 28.41; <G1 (MDA-MB-435 (Basal)): 2.66; G2/M (MDA-MB-435 (Basal)): 40.08; colonies formed in soft agar (number and size) [1]: reduction in the number of colonies; colonies formed in soft agar (number and size) ([1]; listed as siRNA#3): reduction in both colony size and number |
| siRNA #4: siRNA targeting human TTK: 5′-GAUAAGAUCAUCCGACUUU-3′ (SEQ ID NO: 6) (listed as RNA, chemistry not given here) | 0.90 | 0.56 | 1.46 | 0.63 | 0.77 | 1.05 | 0.58 | 1.19 | 0.93 | 0.72 | 1.16 | 0.91 |  |  |  |  |  |  |  |  |  |
